What was measured:
wheat = assay: Test B pre/postemergence wheat; format: in vivo, Triticum aestivum
Method in brief: (§1)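 Test chemicals in a non-phytotoxic solvent mixture with surfactant were sprayed preemergence onto planted seeds and postemergence onto plants 2 to 18 cm tall (1- to 4-leaf stage). After twelve to sixteen days in a greenhouse, injury was visually rated against untreated controls from 0 (no effect) to 10 (complete control).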

purple nutsedge = assay: Test B pre/postemergence purple nutsedge; format: in vivo, Cyperus rotundus; conditions: for Nutsedge plant response rating (0 to 10 scale): 0 is no effect
Method in brief: as §1

duck salad = assay: Test B flood test duck salad; format: in vivo, Heteranthera limosa
Method in brief: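 Read-out is a visual response score from 0 (no effect) to 10 (complete control), assigned by comparison with untreated controls. Treatment was applied at the 2-leaf stage, and plants stayed in the greenhouse for twelve to sixteen days before scoring.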

soybean = assay: Test B pre/postemergence soybean; format: in vivo, Glycine max; conditions: for Soybean plant response rating (0 to 10 scale): 0 is no effect
Method in brief: as §1

[1] = Postemergence, Rate 1000 g/ha, scale 0 to 10 (0 no effect, 10 complete control)
[2] = Preemergence, Rate 62 g/ha, scale of 0 to 10 where 0 is no effect and 10 is complete control
[3] = Preemergence, Rate 250 g/ha, scale 0 to 10, 0 is no effect, 10 is complete control
[4] = Preemergence, Rate 500 g/ha, scale 0 to 10 (0 no effect, 10 complete control)
[5] = Rate 125 g/ha, Postemergence, scale 0 to 10
[6] = Rate 500 g/ha, Postemergence, scale 0 to 10
[7] = Rate 1000 g/ha, Preemergence, scale 0 to 10 (0 no effect, 10 complete control)
[8] = Preemergence, Rate 125 g/ha, 10 is complete control
[9] = Rate 62 g/ha, Postemergence, scale of 0 to 10 where 0 is no effect and 10 is complete control
[10] = Rate 62 g/ha, headed Pre-emergence (flood test species), scale 0 to 10 (0 no effect, 10 complete control)
[11] = Rate 125 g/ha, Pre-emergence, flood test species, scale 0 to 10 where 0 is no effect and 10 is complete control
[12] = Rate 250 g/ha, Pre-emergence, flood-test species, scale 0 to 10, 0 is no effect, 10 is complete control
[13] = Rate 500 g/ha, headed Pre-emergence (flood test species), scale 0 to 10 (0 no effect, 10 complete control)
[14] = Preemergence, Rate 500 g/ha, scale of 0 to 10 where 0 is no effect and 10 is complete control
[15] = Preemergence, Rate 250 g/ha, scale of 0 to 10 where 0 is no effect and 10 is complete control
[16] = Rate 125 g/ha, Preemergence, scale of 0 to 10 where 0 is no effect and 10 is complete control
[17] = Rate 500 g/ha, Postemergence, scale 0 to 10, 0 no effect, 10 complete control

Row | SMILES | Wheat plant response rating (wheat; [2]) | Wheat plant response rating (wheat; [3]) | Wheat plant response rating (wheat; [5]) | Plant response rating (0 to 10; 0 is no effect, 10 is complete control), Wheat (wheat; Rate 250 g/ha, Postemergence) | Nutsedge plant response rating (purple nutsedge; [2]) | Nutsedge plant response rating (purple nutsedge; [3]) | Nutsedge plant response rating (purple nutsedge; [9]) | Nutsedge plant response rating (purple nutsedge; [5]) | Plant response rating (0 to 10; 0 is no effect, 10 is complete control), Nutsedge (purple nutsedge; Rate 250 g/ha, Postemergence) | Nutsedge plant response rating (purple nutsedge; [6]) | Ducksalad plant response rating (duck salad; [10]) | Ducksalad plant response rating (duck salad; [11]) | Ducksalad plant response rating (duck salad; [12]) | Plant response rating, Ducksalad (duck salad; [13]) | Soybean plant response rating (soybean; [2]) | Soybean plant response rating (0 to 10 scale) (soybean; [8]) | Soybean plant response rating (soybean; [3]) | Soybean plant response rating (soybean; [9]) | Soybean plant response rating (soybean; [5]) | Plant response rating (0 to 10; 0 is no effect, 10 is complete control), Soybean (soybean; Rate 250 g/ha, Postemergence) | also measured
1 | CC(C)N(C(=O)n1oc(=O)n(C2CCCC(C(F)(F)F)C2)c1=O)c1ccc(F)cc1 (centres unmarked) [Compound 184] | 0 | 0 | 2 | 2 | 0 | 0 | 0 | 0 | 0 | 0 | 0 | 0 | 0 | 0 | 0 | 0 | 0 | 1 | 1 | 3 | Wheat plant response rating (wheat; [1]): 3; Wheat plant response rating (wheat; [4]): 0; Wheat plant response rating (wheat; [6]): 3; Plant response rating, Wheat (wheat; [7]): 0; Nutsedge plant response rating (purple nutsedge; [1]): 0; Nutsedge plant response rating (0 to 10 scale) (purple nutsedge; [8]): 0; Nutsedge plant response rating (purple nutsedge; [4]): 0; Ducksalad plant response rating (duck salad; Rate 1000 g/ha, Pre-emergence (as headed), scale 0 to 10): 0; Soybean plant response rating (soybean; [1]): 4; Soybean plant response rating (soybean; [4]): 0; Soybean plant response rating (soybean; [6]): 3; Plant response rating, Soybean (soybean; [7]): 0
2 | CCN(Cc1ccncc1)C(=O)n1oc(=O)n(C(C)C)c1=O [Compound 189] | 0 | 0 | 0 | 0 | 0 | 0 | 0 | 0 | 0 | 0 | 0 | 0 | 0 | 0 | 0 | 0 | 0 | 0 | 0 | 0 | Wheat plant response rating (wheat; [4]): 2; Wheat plant response rating (wheat; [9]): 0; Nutsedge plant response rating (0 to 10 scale) (purple nutsedge; [8]): 0; Nutsedge plant response rating (purple nutsedge; [4]): 0; Soybean plant response rating (soybean; [4]): 0; Soybean plant response rating (soybean; [6]): 0
3 | CCN(C(=O)n1oc(=O)n(C(C)C)c1=O)c1nncs1 [Compound 190] | 0 | 0 | 0 | 0 | 0 | 0 | 0 | 0 | 0 | 0 | 0 | 0 | 0 | 0 | 0 | 0 | 0 | 0 | 0 | 0 | Wheat plant response rating (wheat; [4]): 0; Wheat plant response rating (wheat; [9]): 0; Nutsedge plant response rating (purple nutsedge; [4]): 0; Soybean plant response rating (soybean; [4]): 0; Soybean plant response rating (soybean; [6]): 0
4 | Cc1nc(C)c(-n2c(=O)on(C(=O)N(c3ccc(Cl)cc3)C(C)C)c2=O)s1 [Compound 196] | 0 | 0 | 0 | 0 | 0 | 0 | 0 | 0 | 0 | 0 | 0 | 0 | 0 | 0 | 0 | 0 | 0 | 0 | 0 | 0 | Plant response rating, Wheat (wheat; [14]): 0; Wheat plant response rating (wheat; [9]): 0; Nutsedge plant response rating (0 to 10 scale) (purple nutsedge; [8]): 0; Plant response rating, Nutsedge (purple nutsedge; [14]): 0; Ducksalad plant response rating (duck salad; Rate 31 g/ha, Pre-emergence section (flood test species), scale 0 to 10): 0; Plant response rating, Soybean (soybean; [14]): 0; Soybean plant response rating (soybean; [6]): 0
5 | Cc1nc(C)c(-n2c(=O)on(C(=O)N(c3ccccc3)C(C)C)c2=O)s1 [Compound 197] | 0 | 0 | 0 | 0 | 0 | 0 | 0 | 0 | 0 | 0 | 0 | 0 | 0 | 0 | 0 | 0 | 0 | 0 | 0 | 0 | Plant response rating, Wheat (wheat; [14]): 0; Wheat plant response rating (wheat; [9]): 0; Nutsedge plant response rating (0 to 10 scale) (purple nutsedge; [8]): 0; Plant response rating, Nutsedge (purple nutsedge; [14]): 0; Plant response rating, Soybean (soybean; [14]): 0; Soybean plant response rating (soybean; [6]): 0
6 | CCN(C(=O)n1oc(=O)n(C)c1=O)C1CCCCC1 [Compound 228] | 0 | – | 0 | 0 | 0 | – | 0 | 0 | 0 | – | 0 | 0 | 0 | – | 0 | – | – | 0 | 0 | 1 | Wheat plant response rating (wheat; [15]): 0; Plant response rating, Wheat (wheat; [14]): 0; Wheat plant response rating (wheat; [9]): 0; Wheat plant response rating (wheat; [16]): 0; Wheat plant response rating (wheat; [17]): 0; Nutsedge plant response rating (purple nutsedge; [15]): 0; Plant response rating, Nutsedge (purple nutsedge; [14]): 0; Nutsedge plant response rating (purple nutsedge; [16]): 0; Nutsedge plant response rating (purple nutsedge; [17]): 0; Ducksalad plant response rating (duck salad; Rate 500 g/ha, Pre-emergence, flood test species, scale 0 to 10 (0 no effect, 10 complete control)): 0; Soybean plant response rating (soybean; [15]): 0; Plant response rating, Soybean (soybean; [14]): 0; Soybean plant response rating (soybean; [16]): 0; Soybean plant response rating (soybean; [17]): 1

From US6737383B1, “Herbicidal oxadiazolidines” (priority 1999, dated 2004)
